Reference: US20100022483A1, “Substituted Tetracycline Compounds” (Paratek Pharmaceuticals, Inc., priority 2008, published 2010)
In brackets after ≈: the same amount, converted by molar mass. Like-named read-outs stand apart in the source and are kept apart here.

Columns and labels:
[1] = tested on: gram positive bacteria; assay: In vitro anti-bacterial activity assay (broth dilution MIC), gram positive bacteria; format: cell-based, S. aureus; details: 18 h
Excerpt: (§1) Bacterial infections may be caused by a wide variety of gram positive and gram negative bacteria. Some of the compounds of the invention are useful as antibiotics against organisms which are resistant and/or sensitive to other tetracycline compounds. The antibiotic activity of the tetracycline compounds of the invention may by using the in vitro standard broth dilution method described in Waitz, J. A., CLSI, Document M7-A2, vol. 10, no. 8, pp. 13-20, 2nd edition, Villanova, Pa. (1990).
(§2) The following assay was used to determine the efficacy of the tetracycline compounds against gram positive and gram negative bacteria. 2 mg of each compound was dissolved in 100 μl of DMSO. […] The tetracycline compound solutions were diluted to 50 μL volumes, with a test compound concentration of 0.098 μg/ml. Optical density (OD) determinations were made from fresh log-phase broth cultures of the test strains. Dilutions were made to achieve a final cell density of […] CFU/ml. At OD=1, cell densities for different genera were approximately:
(§3) 50 μl of the cell suspensions were added to each well of microtiter plates. The final cell density was approximately 5×10^5 CFU/ml. These plates were incubated at 35° C. in an ambient air incubator for approximately 18 hours. The plates were read with a microplate reader and were visually inspected when necessary. The MIC was defined as the lowest concentration of the tetracycline compound that inhibits growth. Table 3 includes MIC data for several substituted tetracycline compounds.

[2] = tested on: gram negative bacteria; assay: In vitro anti-bacterial activity assay (broth dilution MIC), gram negative bacteria; format: cell-based, E. coli
Excerpt: as §1, §2, §3

[3] = Mammalian cytotoxicity assay (resazurin), COS-1 cells; format: cell-based; details: African green monkey, read-out: Cytotox. COS-1
Description: (§4) COS-1 and CHO-K1 cell suspensions were prepared, seeded into 96-well tissue culture treated black-walled microtiter plates (density determined by cell line), and incubated overnight at 37° C., in 5% CO2 and approximately 95% humidity. The following day, serial dilutions of compound were prepared under sterile conditions and transferred to cell plates. Cell/Compound plates were incubated under the above conditions for 24 hours. Following the incubation period, media/compound was aspirated and 50 μl of resazurin (0.042 mg/ml in PBS w/Ca and Mg) is added. The plates were then incubated under the above conditions for 2 hours and then placed in the dark at room temperature for an additional 30 minutes. Fluorescence measurements were taken (excitation 535 nm, emission 590 nm). The IC50 (concentration of compound causing 50% growth inhibition) was then calculated. Table 3 includes IC50 data for several substituted tetracycline compounds.

[4] = in vitro; format: cell-based; details: Chinese hamster, Cytotox. CHO-K1
Description: as §4

[5] = tested on: 3T3 fibroblast cells; assay: In vitro phototoxicity assay (neutral red; UV light-treated vs dark control plates); format: cell-based; details: for Photo Toxicity UV Tox50: UV light 50 minutes; for Photo Toxicity Dark Tox50: dark control plate
Description: 3T3 fibroblast cells were harvested and plated at a concentration of 1×10^5 cells/mL and the plates were incubated overnight at 37° C., in 5% CO2 and approximately 95% humidity. On the following day the medium was removed from the plates and replaced with Hanks' Balanced Salt Solution (HBSS). Compound dilutions were made in HBSS and added to the plates. For each compound tested, a duplicate plate was prepared that was not exposed to light as a control for compound toxicity. Plates were then incubated in a dark drawer (for controls), or under UV light (meter reading of 1.6-1.8 mW/cm^2) for 50 minutes. Cells were then washed with HBSS, fresh medium was added, and plates were incubated overnight as described above. The following day neutral red was added as an indicator of cell viability. The plates were then incubated for an additional 3 hours. Cells were then washed with HBSS and blotted on absorbent paper to remove excess liquid. A solution of 50% EtOH, 10% glacial acetic acid was added and after 20 minutes incubation the plate's absorbance at 535 nm was read using a Wallac Victor 5 spectrophotometer. The phototoxicity reflected the difference between the light-treated and control cultures. Table 3 includes phototoxicity (μM) data for several substituted tetracycline compounds.

[6] = Staphylococcus aureus, S. aureus MRSA5, read-out: Median MIC's G+ S. aureus MRSA5
[7] = Staphylococcus aureus, S. aureus RN450, read-out: Median MIC's G+ S. aureus RN450
[8] = Streptococcus pneumoniae, S. pneumoniae 157E-Strep, read-out: Median MIC's G+ S. pneumoniae 157E-Strep
[9] = Escherichia coli, 18 h, E. coli D1 209, read-out: Median MIC's G− E. coli D1 209
[10] = Escherichia coli, 18 h, E. coli MG 1655, read-out: Median MIC's G− E. coli MG 1655
[11] = Escherichia coli, ATCC25922, 18 h, E. coli ATCC 25922, read-out: Median MIC's G− E. coli ATCC 25922
[12] = Pseudomonas aeruginosa, 18 h, P. aeruginosa K201 PAO6609, read-out: Median MIC's G− P. aeruginosa K201 PAO6609

Structure (SMILES)	MIC [1, 6]	MIC [1, 7]	MIC [1, 8]	MIC [2, 9]	MIC [2, 10]	MIC [2, 11]	MIC [2, 12]	IC50 at 24 h [3]	IC50 at 24 h [4]	Photo Toxicity UV Tox50 [5]	Photo Toxicity Dark Tox50 [5]
CC1CCN(CC(=O)c2ccc(O)c3c2C[C@H]2C[C@H]4[C@H](N(C)C)C(O)=C(C(N)=O)C(=O)[C@@]4(O)C(O)=C2C3=O)CC1 [BH, 7-[2-(4-methyl-piperidin-1-yl)acetyl]-Sancycline]	0.06 µg/mL (≈ 0.108 µM)	0.06 µg/mL (≈ 0.108 µM)	0.06 µg/mL (≈ 0.108 µM)	0.25 µg/mL (≈ 0.452 µM)	0.06 µg/mL (≈ 0.108 µM)	0.06 µg/mL (≈ 0.108 µM)	32 µg/mL (≈ 57.8 µM)	> 136 µM	> 136 µM	>135.66 µM	>135.66 µM
CN(C)[C@@H]1C(O)=C(C(N)=O)C(=O)[C@@]2(O)C(O)=C3C(=O)c4c(O)ccc(-c5ccc(CNCc6cccnc6)o5)c4C[C@H]3C[C@@H]12 [BI]	8 µg/mL (≈ 13.3 µM)	0.06 µg/mL (≈ 0.0999 µM)	0.06 µg/mL (≈ 0.0999 µM)	2 µg/mL (≈ 3.33 µM)	4 µg/mL (≈ 6.66 µM)	1 µg/mL (≈ 1.66 µM)	64 µg/mL (≈ 107 µM)	> 39.3 µM	> 26 µM	>126.75 µM	>126.75 µM
CN(Cc1cccnc1)Cc1cccc(-c2ccc(O)c3c2C[C@H]2C[C@H]4[C@H](N(C)C)C(O)=C(C(N)=O)C(=O)[C@@]4(O)C(O)=C2C3=O)c1 [BJ]	2 µg/mL (≈ 3.2 µM)	0.25 µg/mL (≈ 0.4 µM)	0.06 µg/mL (≈ 0.096 µM)	32 µg/mL (≈ 51.2 µM)	64 µg/mL (≈ 102 µM)	16 µg/mL (≈ 25.6 µM)	64 µg/mL (≈ 102 µM)	> 12.3 µM	> 25.1 µM	>122.6 µM	>122.6 µM
CN(C)Cc1ccc(-c2ccc(O)c3c2C[C@H]2C[C@H]4[C@H](N(C)C)C(O)=C(C(N)=O)C(=O)[C@@]4(O)C(O)=C2C3=O)[nH]1 [BK]	4 µg/mL (≈ 7.45 µM)	0.25 µg/mL (≈ 0.466 µM)	0.13 µg/mL (≈ 0.242 µM)	64 µg/mL (≈ 119 µM)	4 µg/mL (≈ 7.45 µM)	4 µg/mL (≈ 7.45 µM)	32 µg/mL (≈ 59.6 µM)	> 148 µM	> 148 µM	>147.66 µM	>147.66 µM
CN(CCC#N)Cc1cccc(-c2ccc(O)c3c2C[C@H]2C[C@H]4[C@H](N(C)C)C(O)=C(C(N)=O)C(=O)[C@@]4(O)C(O)=C2C3=O)c1 [BL]	2 µg/mL (≈ 3.41 µM)	0.06 µg/mL (≈ 0.102 µM)	0.06 µg/mL (≈ 0.102 µM)	16 µg/mL (≈ 27.3 µM)	16 µg/mL (≈ 27.3 µM)	4 µg/mL (≈ 6.82 µM)	64 µg/mL (≈ 109 µM)	> 13.6 µM	> 13.6 µM	>136.45 µM	>136.45 µM
CN(CCOC(C)(C)C)Cc1cccc(-c2ccc(O)c3c2C[C@H]2C[C@H]4[C@H](N(C)C)C(O)=C(C(N)=O)C(=O)[C@@]4(O)C(O)=C2C3=O)c1 [BM]	2 µg/mL (≈ 3.16 µM)	0.13 µg/mL (≈ 0.205 µM)	0.06 µg/mL (≈ 0.0947 µM)	4 µg/mL (≈ 6.31 µM)	8 µg/mL (≈ 12.6 µM)	4 µg/mL (≈ 6.31 µM)	64 µg/mL (≈ 101 µM)	22.8 µM	21.6 µM	5.93 µM	>104.43 µM
CN(C)[C@H]1C(O)=C(C(N)=O)C(=O)[C@@]2(O)C(O)=C3C(=O)c4c(O)ccc(-c5cccc(CCCN6CCCCC6)c5)c4C[C@H]3C[C@@H]12 [BN]	32 µg/mL (≈ 52 µM)	4 µg/mL (≈ 6.5 µM)	0.25 µg/mL (≈ 0.406 µM)	32 µg/mL (≈ 52 µM)	32 µg/mL (≈ 52 µM)	16 µg/mL (≈ 26 µM)	64 µg/mL (≈ 104 µM)	> 63 µM	> 63 µM	33.41 µM	>200 µM
